IC50 data for 22 compounds are collected here from patent US20240208997A1, “CYCLIC BENZIMIDAZOLE DERIVATIVES AS CGAS INHIBITORS” (Boehringer Ingelheim International GmbH, priority 2022, published 2024).

For test [1], the system named is IFN induction in virus-stimulated THP1 cells. The test can be described thus: Human cGAS cell assay, virus-stimulated THP1-Dual cells (THP1(vir) IC50). The test is classed as cell-based. Conditions: THP-1, 18 h, Table 1, baculovirus-stimulated THP1-Dual cells, Lucia luciferase, 18 h, read-out: THP(vir) IC50. The source says:
6.2 Method: Human cGAS Cell Assay and cGAMP Stimulated Counter Cell Assay (THP1(vir) IC50 and THP1(cGAMP) IC50)
THP1-Dual™ cells (InvivoGen #thpd-nfis) expressing IRF dependent Lucia luciferase reporter were used as basis for both assays. For the detection of cellular cGAS activity cells were stimulated by a baculovirus (pFastbac-1, Invitrogen, no coding insert) infection that delivers the cGAS enzyme stimulating double-stranded DNA (measurement of THP1(vir) IC50).
Pathway activity was monitored by measuring the Lucia luciferase activity induced by either DNA stimulated cGAS enzyme activity (measurement of THP1(vir) IC50) or by cGAMP directly (measurement of THP1(cGAMP) IC50, counter assay).
Compounds were delivered in 10 mM DMSO solution, serially diluted and transferred to the 384 well assay plate (Greiner #781201) using an Echo acoustic dispenser. Typically, 8 concentrations were used with the highest concentration at 10 μM in the final assay volume followed by ^˜1:5 dilution steps. DMSO concentration was set to 1% in the final assay volume. The 384 well assay plate contained […] (column 1-22), and DMSO in column 23 and 24.
Cells, cultivated according to manufacturer conditions, were harvested by centrifugation at 300 g/10 min and were then resuspended and diluted to 1.66E5 cells/ml in fresh cell culture medium (RPMI 1640 (Gibco #A10491-01), 10% FCS (Gibco #10500), 1× GlutaMax (Gibco #35050-061), 1× Pen/Strep solution (Gibco #15140-122), 100 μg/ml Normocin (InvivoGen #ant-nr), 100 μg/ml Zeocin (InvivoGen #ant-zn), 10 μg/ml Blasticidin S (Life Technologies #A11139-03)). The baculovirus solution was then added 1:200 (have varied according to virus batch) to the cells (measurement of THP1(vir) IC50).
30 μL of the cell/virus-mix were added to each well of the compound plate from column 1-23 via MultiDrop Combi dispenser (5000 cells/well). In column 24, 30 μl/5000 cells/well without virus were added as a low control.
The plates were then incubated for 18 h at 37° C. in a humidified incubator.
Following that, 15 μL of QuantiLuc detection reagent (InvivoGen #rep-qlcg5) were added to each well using a MultiDrop Combi. Measurement was done immediately after the addition using an EnVision reader (US-luminescence read-mode).
(§1) Data Evaluation and Calculation:
For data evaluation and calculation, the measurement of the low control was set as 0% control and the measurement of the high control was set as 100% control. The IC50 values were calculated using the standard 4 parameter logistic regression formula. Calculation: [y=(a−d)/(1+(x/c)^b)+d], a=low value, d=high value; x=conc M; c=IC50 M; b=slope

The target of the next test is cGAS (Homo sapiens, UniProt Q8N884). The test can be described thus: Human cGAS enzyme assay (hcGAS IC50, in vitro), cGAMP formation by RapidFire MS. Type of test: biochemical. Details: HumancGAS (amino acid 1-522) with an N-terminal 6×-His-tag and SUMO-tag; 6xHis (N); SUMO (N); made in house; host or cells: E. coli BL21(DE3) pLysS. Conditions: Table 1; 45 bp dsDNA-activated enzyme. Here is the method:
6.1 Method: Human cGAS Enzyme Assay (hcGAS IC50 (In Vitro))
Human cGAS enzyme was incubated in the presence of a 45 base pair double stranded DNA to activate the enzyme and GTP and ATP as substrates. Compound activity was determined by measuring the effect of compounds on the formation of the product of the enzyme reaction, cGAMP, which is measured by a mass spectrometry method.
HumancGAS (amino acid 1-522) with an N-terminal 6×-His-tag and SUMO-tag was expressed in E. coli BL21(DE3) pLysS (Novagen) cells for 16 h at 18° C. Cells were lysed in buffer containing 25 mM Tris (pH 8), 300 mM NaCl, 10 mM imidazole, 10% glycerol, protease inhibitor cocktail (cOmplete™, EDTA-free, Roche) and DNase (5 μg/mL). […] Purified protein was concentrated to 1.7 mg/mL and stored at −80° C.
Compounds were delivered in 10 mM DMSO solution, serially diluted and transferred to the 384 well assay plate (Greiner #781201) using an Echo acoustic dispenser. Typically, 8 concentrations were used with the highest concentration at 10 μM in the final assay volume followed by ^˜1:5 dilution steps. DMSO concentration was set to 1% in the final assay volume. The 384 well assay plate contained 22 test compounds (column 1-22), and DMSO in column 23 and 24.
After the compound transfer, 15 μL of the enzyme-DNA-working solution (12 nM cGAS, 0.32 μM 45base pair DNA in assay buffer, 10 mM Tris pH 7.5/10 mM KCl/5 mM MgCl2/1 mM DTT) were added to each well from column 1-23 via a MultiDrop Combi dispenser. In column 24, 15 μl of assay buffer without enzyme/DNA were added as a low control.
The plates were then pre-incubated for 60 min at room temperature.
Following that, 10 μL of GTP (ThermoFisher #R0461)-ATP (Promega #V915B) mix in assay buffer were added to the assay plate (columns 1-24, 30 μM final concentration each) using a Multidrop Combi.
The plates were incubated again for 90 min at room temperature.
Following the incubation, the reaction was stopped by 80 μL of 0,1% formic acid in assay buffer containing 5 nM cyclic-di-GMP (Sigma #SML1228) used as internal standard for the mass spectrometry. The total volume/well was 105 μL.
The plates were centrifuged at 4000 rpm, 4° C., for 5 min.
The RapidFire autosampler was coupled to a binary pump (Agilent 1290) and a Triple Quad 6500 (ABSciex, Toronto, Canada). […] Aspiration time: 250 ms; Load time: 3000 ms; Elute time: 3000 ms; Wash volume: 500 μL.
The MS was operated in positive ion mode with HESI ion source, with a source temperature of 550 C, curtain gas=35, gas 1=65, and gas 2=80. Unit mass resolution in SRM mode. The following transitions and MS parameters (DP: declustering potential and CE: collision energy) for cGAMP and DicGMP were determined:
Internal standard: cyclic-di-GMP at 690.1/540, DP=130, CE=30.
The formation of cGAMP was monitored and evaluated as ratio to cyclic-di-GMP.
as §1
For data evaluation and calculation, the measurement of the low control was set as 0% control and the measurement of the high control was set as 100% control. The IC50 values were calculated using the standard 4 parameter logistic regression formula. Calculation: [y=(a−d)/(1+(x/c)^b)+d], a=low value, d=high value; x=conc M; c=1C50 M; b=slope

cGAS, sequence (Q8N884 whole entry): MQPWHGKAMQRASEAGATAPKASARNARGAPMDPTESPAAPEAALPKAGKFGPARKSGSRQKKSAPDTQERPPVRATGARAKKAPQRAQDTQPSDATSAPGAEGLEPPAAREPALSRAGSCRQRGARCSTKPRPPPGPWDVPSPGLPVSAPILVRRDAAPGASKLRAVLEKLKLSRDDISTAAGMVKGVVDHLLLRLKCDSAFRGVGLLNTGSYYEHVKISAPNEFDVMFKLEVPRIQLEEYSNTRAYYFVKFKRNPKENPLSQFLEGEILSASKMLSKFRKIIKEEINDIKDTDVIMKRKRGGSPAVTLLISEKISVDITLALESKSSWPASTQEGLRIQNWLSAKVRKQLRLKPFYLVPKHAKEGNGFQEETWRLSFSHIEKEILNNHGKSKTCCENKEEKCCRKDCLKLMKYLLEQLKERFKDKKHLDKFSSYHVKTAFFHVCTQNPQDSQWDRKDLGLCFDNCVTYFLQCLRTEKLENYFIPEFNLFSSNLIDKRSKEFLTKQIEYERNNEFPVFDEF

Regarding `C[C@H]1CN2CC[C@@H]1n1c(nc3ccc(Cl)cc31)O[C@H]1C[C@@H](C(=O)O)N(C1)c1nc(nc3c1oc1ccccc13)C(F)(F)CCCCCC2=O` [Example 1.13], the IC50 (as a rule, the concentration needed to halve the response being measured) was 4.9 nM in test [1] and 6.1 nM at cGAS.

`C[C@H]1CN2CC[C@@H]1n1c(nc3ccccc31)O[C@H]1C[C@@H](C(=O)O)N(C1)c1nc(nc3c1oc1cc(F)ccc13)C(F)(F)CCCCCC2=O` [Example 1.14]: the IC50 in test [1] is 1.5 nM; at cGAS it was 4.1 nM.

For `C[C@H]1CN2CC[C@@H]1n1c(nc3cc(F)ccc31)O[C@H]1C[C@@H](C(=O)O)N(C1)c1nc(nc3c1oc1cc(F)ccc13)C(F)(F)CCCCCC2=O` [Example 1.15], the IC50 in test [1] was found to be 7.1 nM; on cGAS, 3.5 nM.

For `C[C@H]1CN2CC[C@@H]1n1c(nc3ccccc31)O[C@H]1C[C@@H](C(=O)O)N(C1)c1nc(nc3c1oc1cc(Cl)ccc13)C(F)(F)CCCCCC2=O` [Example 1.16], the results for the IC50 (in test [1]; against cGAS) were 9.7 nM and 3.3 nM, respectively.

As for `C[C@H]1CN2CC[C@@H]1n1c(nc3ccccc31)O[C@H]1C[C@@H](C(=O)O)N(C1)c1nc(nc3c1oc1ccccc13)C(F)(F)CCCCC(F)(F)C2=O` [Example 1.17], the IC50 in test [1] was 13 nM; on cGAS, 7.2 nM.

Regarding `C[C@H]1CN2CC[C@@H]1n1c(nc3cc(F)ccc31)O[C@H]1C[C@@H](C(=O)O)N(C1)c1nc(nc3c1oc1ccccc13)C(F)(F)CCCCC(F)(F)C2=O` [Example 1.18], the IC50 in test [1] came out at 37 nM; against cGAS it was 3.9 nM.

As to `C[C@H]1CN2CC[C@@H]1n1c(nc3ccccc31)O[C@H]1C[C@@H](C(=O)O)N(C1)c1nc(nc3c1oc1ccccc13)CCCCCC2=O` [Example 1.19], the IC50 in test [1] came out at 40 nM; at cGAS, 3.8 nM.

Regarding `CC1CCc2nc(c3oc4ccccc4c3n2)N2C[C@H](C[C@H]2C(=O)O)Oc2nc3cc(Cl)ccc3n2[C@H]2CCN(C[C@@H]2C)C(=O)CCO1` (some centres unmarked) [Example 1.20], the IC50 in test [1] turned out to be 13 nM; against cGAS it was 4.9 nM.

As for `C[C@H]1CN2CC[C@@H]1n1c(nc3cc(Cl)ccc31)O[C@H]1C[C@@H](C(=O)O)N(C1)c1nc(nc3c1oc1ccccc13)C(F)(F)CCCOCC2=O` [Example 1.21], the results for the 50% inhibitory concentration (IC50) (in test [1]; on cGAS) were 1.9 nM and 3.3 nM, respectively.

Take `C[C@H]1CN2CC[C@@H]1n1c(nc3ccccc31)O[C@H]1C[C@@H](C(=O)O)N(C1)c1nc(nc3c1oc1cc(Cl)ccc13)C(F)(F)CCCOCC2=O` [Example 1.22]: the IC50 in test [1] worked out at 1.5 nM; on cGAS, 2.7 nM.

In the case of `C[C@H]1CN2CC[C@@H]1n1c(nc3ccccc31)O[C@H]1C[C@@H](C(=O)O)N(C1)c1nc(nc3c1oc1ccccc13)CCCC(C)(C)CCC2=O` [Example 1.23], the IC50 in test [1] was determined as 190 nM; at cGAS it was 41 nM.

Consider `C[C@H]1CCCCC(=O)N2CCC(CC2)n2c(nc3ccccc32)O[C@H]2C[C@@H](C(=O)O)N(C2)c2nc1nc1c2oc2ccccc21` [Example 1.25], for which the IC50 in test [1] was found to be 8 nM; against cGAS, 5.5 nM.

Regarding `C[C@@H]1CCCCC(=O)N2CCC(CC2)n2c(nc3ccccc32)O[C@H]2C[C@@H](C(=O)O)N(C2)c2nc1nc1c2oc2ccccc21` [Example 1.26], the values for the half-inhibitory concentration (IC50) (in test [1]; on cGAS) were 5.5 nM and 3.4 nM, respectively.

On to `Cc1cccc2c1nc1n2[C@@H]2CCN(C[C@H]2C)C(=O)CCCCCC(F)(F)c2nc(c3oc4ccccc4c3n2)N2C[C@H](C[C@H]2C(=O)O)O1` [Example 1.27], for which the IC50 in test [1] was 180 nM; against cGAS it was 100 nM.

On to `Cc1cccc2c1nc1n2[C@H]2CCN(C[C@@H]2C)C(=O)CCCCCC(F)(F)c2nc(c3oc4ccccc4c3n2)N2C[C@H](C[C@H]2C(=O)O)O1` [Example 1.28], for which the IC50 in test [1] turned out to be 15 nM; on cGAS it was 11 nM.

`C[C@H]1CN2CC[C@@H]1n1c(nc3ccccc31)O[C@H]1C[C@@H](C(=O)O)N(C1)c1nc(nc3c1oc1ccccc13)C(F)(F)COCCCCC2=O` [Example 3.01]: the values for the IC50 (in test [1]; against cGAS) were 0.44 nM and 2.1 nM, respectively.

For `C[C@H]1CN2CC[C@@H]1n1c(nc3ccccc31)O[C@H]1C[C@@H](C(=O)O)N(C1)c1nc(nc3c1oc1ccccc13)C(F)(F)COCCCC2=O` [Example 4.01], the IC50 in test [1] amounted to 0.69 nM; against cGAS it was 1.7 nM.

Turning to `O=C(O)[C@@H]1C[C@H]2CN1c1nc(nc3c1oc1ccccc13)COCCCCCC(=O)N1CCC(CC1)n1c(nc3cccc(F)c31)O2` [Example 5.01], the results for the IC50 (in test [1]; against cGAS) were 38 nM and 5.5 nM, respectively.

`C[C@H]1CN2CC[C@@H]1n1c(nc3cc(Cl)ccc31)O[C@H]1C[C@@H](C(=O)O)N(C1)c1nc(nc3c1oc1ccccc13)C(F)(F)OCCCCC2=O` [Example 6.01]: the results for the IC50 (in test [1]; at cGAS) were 3.1 nM and 3.5 nM, respectively.

Consider `C[C@@H]1CC(=O)N2CCC(CC2)n2c(nc3ccccc32)O[C@H]2C[C@@H](C(=O)O)N(C2)c2nc(nc3c2oc2ccccc23)CCCO1` [Example 7.01], for which the IC50 in test [1] was 150 nM; at cGAS, 8.8 nM.

Regarding `O=C(O)[C@@H]1C[C@H]2CN1c1nc(nc3c1oc1ccccc13)COCCCC(F)(F)C(=O)N1CCC(CC1)n1c(nc3ccccc31)O2` [Example 8.01], the results for the IC50 (in test [1]; at cGAS) were 39 nM and 5.6 nM, respectively.

As to `O=C(O)[C@@H]1C[C@H]2CN1c1nc(nc3c1oc1ccccc13)CCCOCC(=O)N1CCC(CC1)n1c(nc3ccccc31)O2` [Example 9.01], the IC50 worked out at 400 nM in test [1] and 7.5 nM at cGAS.
